Test results published in patent US9440933B2, “Azole derivative, method for producing same, intermediate compound, and agricultural or horticultural chemical agent and industrial material protecting agent” (KUREHA CORPORATION, priority 2011, dated 2016).

Legend:
[1] = tested on: wheat leaf blight-causing microbe; assay: Antimicrobial activity to wheat leaf blight-causing microbe (PDA plate, hyphal expansion inhibition); assay type: cell-based, Septoria tritici; details: 336 h, PDA medium, 25° C., 14 days; for inhibition at 50 µg/mL: Concentration 50 mg/L, read-out: Growth inhibition; for inhibition at 1.25 µg/mL: test sample concentration 1.25 mg/L, read-out: hyphal expansion-inhibiting rate
Procedure: In this Test Example, antimicrobial activity of the inventive compounds to wheat leaf blight-causing microbe was determined and compared with that of the comparative compound (1).

[2] = tested on: wheat leaf rust-causing microbe; assay: Wheat leaf rust-controlling activity (foliar spray, pot test); assay type: in vivo, Puccinia recondita
[3] = tested on: wheat leaf rust-causing microbe; assay: Control activity of wheat leaf rust by seed treatment (pot test); assay type: in vivo, Puccinia recondita; details: 2 mg in DMSO applied to wheat seeds 10 g, inoculated 21 days after seeding
Procedure: Controlling activity to wheat leaf rust was examined in a pot test. […] The solution prepared was applied to wheat seeds 10 g in a vial and 8 wheat seeds were seeded in a 80 cm^2 pot. The seeds were grown in greenhouse, as water was supplied from below; a wheat leaf rust-causing microbe was inoculated 21 days after seeding; and the pot was stored in a constant-humidity box for 2 days. The plant was grown in green house, as water was supplied from below, and the incidence rate was determined and the controlling rate calculated […]. The controlling rate was calculated according to the equation below and used as the wheat leaf rust-controlling rate. Controlling rate=(1−Incidence rate in treated region/Incidence rate in non-treated region)×100(%)

[4] = tested on: wheat; assay: Damage (necrosis) to wheat by seed treatment (pot test); assay type: in vivo; details: 2 mg in DMSO applied to wheat seeds 1 g, 12 days after seeding
Procedure: Damage (necrosis) to wheat was examined in a pot test. An inventive compound 1-2 and a comparative compound (1) were dissolved in DMSO (18 μl) respectively in an amount of 2 mg. The solution thus prepared was applied to wheat seeds 1 g in a vial and 8 seeds were seeded in a 80 cm^2 pot. The plant was grown in green house, as water was supplied from below, and the damage was determined 12 days after seeding.

[5] = tested on: wheat powdery mildew-causing microbes; assay: Controlling activity to wheat powdery mildew of seed treatment (pot test); assay type: in vivo, Erysiphe graminis f. sp tritici; details: 2 mg in DMSO applied to wheat seeds 1 g, 14 to 28 days after seeding
Procedure: Controlling activity to wheat powdery mildew was examined in a pot test. Each of the inventive compounds […]-53, and a comparative compound (1) was weighed in an amount of 2 mg and dissolved in DMSO (18 μl). The solution thus prepared was applied to wheat seeds 1 g in a vial, 8 wheat seeds were seeded in a 80 cm^2 pot. The wheat was grown, as water was supplied from blow, in a greenhouse where wheat powdery mildew-causing microbes are present abundantly. The incidence rate was determined and the controlling rate and additionally the controlling index calculated 14 to 28 days after seeding. The controlling rate was calculated and the wheat powdery mildew controlling index determined according to the following equation: Controlling rate=(1-Incidence rate in treated region/Incidence rate in non-treated region)×100(%) [table]

[6] = tested on: wheat; assay: Damage to wheat (growth inhibition) by seed treatment (pot test); details: 2 mg in DMSO applied to wheat seeds 1 g, 14 to 28 days after seeding, larger index = smaller damage
[7] = tested on: Wheat fusarium blight-causing microbe (Fusarium graminearum); assay type: cell-based; details: 50 mg/L
[8] = tested on: Rice blast-causing microbe (Pyricularia oryzae); assay type: cell-based; details: 50 mg/L
[9] = tested on: Wheat glume blotch-causing microbe (Phaeosphaeria nodorum); assay: Antimicrobial activity to various pathogenic microbes: P.n; details: 50 mg/L
Procedure: (§1) An inventive compound was dissolved in dimethylsulfoxide 2 ml. The solution 0.6 ml was added to a PDA medium (potato-dextrose-agar medium) 60 ml at around 60° C.
(§2) A flat plate containing a test microbe (wheat leaf blight-causing microbe) cultured separately was punched into pieces with a cork borer having a diameter of 4 mm and the circular plate obtained was placed on the flat plate media containing the chemical described above. The plates were cultured at 25° C. for 14 days after inoculation and the diameter of the microbial colony was determined. Hyphal expansion-inhibiting rate was calculated according to the following equation: R=100(dc−dt)/dc (wherein, R: hyphal expansion-inhibiting rate (%), dc: diameter of microbial colony on non-treated flat plate, dt: diameter of microbial colony on chemically-treated flat plate).
(§3) In this Test Example, the antimicrobial activity of the inventive compounds to various plant disease-causing fungi and industrial material-eroding microorganisms was studied by the method described in Example 1.
(§4) The results thus obtained were evaluated in 5 stages according to the criteria below:
Wheat glume blotch-causing microbe (Phaeosphaeria nodorum) P.n

[10] = tested on: Wheat eye spot-causing microbe (Pseudocercoporella herpotrichoides); assay: Antimicrobial activity to various pathogenic microbes: P.h; details: 50 mg/L
Procedure: as §1
(§5) The plates were cultured at 25° C. for 14 days after inoculation and the diameter of the microbial colony was determined. Hyphal expansion-inhibiting rate was calculated according to the following equation: R=100(dc−dt)/dc (wherein, R: hyphal expansion-inhibiting rate (%), dc: diameter of microbial colony on non-treated flat plate, dt: diameter of microbial colony on chemically-treated flat plate).
as §4
Wheat eye spot-causing microbe (Pseudocercoporella herpotrichoides) P.h

[11] = tested on: Barley loose smut-causing microbe (Ustilago nuda); assay: Antimicrobial activity to various pathogenic microbes: U.n; details: 50 mg/L
Procedure: as §1, §5, §4
Barley loose smut-causing microbe (Ustilago nuda) U.n

[12] = tested on: Rice bakanae disease-causing microbe (Gibberella fujikuroi); assay: Antimicrobial activity to various pathogenic microbes: G.f; details: 50 mg/L
Procedure: as §1, §2, §4

[13] = tested on: Apple alternaria blotch-causing microbe (Alternaria alternata); assay: Antimicrobial activity to various pathogenic microbes: A.m; details: 50 mg/L
Procedure: as §1, §2, §3, §4
Apple alternaria blotch-causing microbe (Alternaria alternata) A.m

[14] = tested on: Sclerotinia rot-causing microbe (Sclerotinia sclerotiorum); assay: Antimicrobial activity to various pathogenic microbes: S.s; details: 50 mg/L
Procedure: as §1, §2, §4
Sclerotinia rot-causing microbe (Sclerotinia sclerotiorum) S.s

[15] = tested on: Gray mold-causing microbe (Botrytis cinerea); assay: Antimicrobial activity to various pathogenic microbes: B.c; details: 50 mg/L
Procedure: as §1, §2, §3, §4
Gray mold-causing microbe (Botrytis cinerea) B.c

[16] = tested on: Cucumber Fusarium wilt-causing microbe (Fusarium oxysporum); assay: Antimicrobial activity to various pathogenic microbes: F.c; details: 50 mg/L
Procedure: as §1, §2, §4

[17] = tested on: Barley scald-causing microbe (Rhynchosporium secalis); assay: Antimicrobial activity to various pathogenic microbes: R.sec; details: 50 mg/L
Procedure: as §1, §2, §3, §4
Barley scald-causing microbe (Rhynchosporium secalis) R.sec

[18] = Concentration 25 g/ha, wettable powder sprayed on wheat (Norin No. 61), 9 to 14 days after inoculation

Structure (SMILES)	inhibition at 50 µg/mL [1]	inhibition at 1.25 µg/mL [1]	Controlling index [2, 18]	Controlling index ([2]; test sample concentration 1 g/ha, wettable powder sprayed on wheat)	controlling rate (wheat leaf rust) [3]	Damage (necrosis) [4]	Controlling index Wheat powdery mildew [5]	Damage index Growth inhibition [6]	Growth inhibition (hyphal expansion-inhibiting rate grade) F.g [7]	Growth inhibition (hyphal expansion-inhibiting rate grade) P.o [8]	Growth inhibition (hyphal expansion-inhibiting rate grade) P.n [9]	Growth inhibition (hyphal expansion-inhibiting rate grade) P.h [10]	Growth inhibition (hyphal expansion-inhibiting rate grade) U.n [11]	Growth inhibition (hyphal expansion-inhibiting rate grade) G.f [12]	Growth inhibition (hyphal expansion-inhibiting rate grade) A.m [13]	Growth inhibition (hyphal expansion-inhibiting rate grade) S.s [14]	Growth inhibition (hyphal expansion-inhibiting rate grade) B.c [15]	Growth inhibition (hyphal expansion-inhibiting rate grade) F.c [16]	Growth inhibition (hyphal expansion-inhibiting rate grade) R.sec [17]
CC1(C)CC[C@H](Cc2ccc(Cl)cc2)[C@@]1(O)Cn1cncn1 (racemic) [Compound (1), (1RS,5SR)-5-(4-chlorobenzyl)-2-dimethyl-1-(1H-1,2,4-triazol-1-ylmethyl)cyclopentanol, reference compound]	> 80%	60 to 80%	5 (81 to 100)	4 (61 to 80)	88%	necrotic symptom	5 (Controlling rate: 40 or more)	0 (80% or more)											
CCOC(=O)[C@]1(C)CC[C@H](Cc2ccc(Cl)cc2)[C@@]1(O)Cn1cncn1 (racemic) [Compound I-133, ethyl-(1RS,2SR,3RS)-3-(4-chlorobenzyl)-2-hydroxy-1-methyl-2-(1H-1,2,4-triazol-1-ylmethyl)cyclopentanecarboxylate]	> 80%		5 (81 to 100)				5 (Controlling rate: 40 or more)	4 (1% or more and less than 20%)	5 (hyphal expansion-inhibiting rate: 80% or more)	5 (hyphal expansion-inhibiting rate: 80% or more)	5 (hyphal expansion-inhibiting rate: 80% or more)	5 (hyphal expansion-inhibiting rate: 80% or more)	5 (hyphal expansion-inhibiting rate: 80% or more)	5 (hyphal expansion-inhibiting rate: 80% or more)	5 (hyphal expansion-inhibiting rate: 80% or more)	5 (hyphal expansion-inhibiting rate: 80% or more)	5 (hyphal expansion-inhibiting rate: 80% or more)	5 (hyphal expansion-inhibiting rate: 80% or more)	5 (hyphal expansion-inhibiting rate: 80% or more)
COC(=O)[C@]1(C)CC[C@H](Cc2ccc(F)cc2)[C@@]1(O)Cn1cncn1 (racemic) [Compound I-53, methyl-(1RS, 2SR,3RS)-3-(4-fluorobenzyl)-2-hydroxy-1-methyl-2-(1H-1,2,4-triazol-1-ylmethyl)cyclopentanecarboxylate]	> 80%	≥ 80%	5 (81 to 100)				5 (Controlling rate: 40 or more)	1 (60% or more and less than 80%)	5 (hyphal expansion-inhibiting rate: 80% or more)	5 (hyphal expansion-inhibiting rate: 80% or more)	5 (hyphal expansion-inhibiting rate: 80% or more)	5 (hyphal expansion-inhibiting rate: 80% or more)	5 (hyphal expansion-inhibiting rate: 80% or more)	5 (hyphal expansion-inhibiting rate: 80% or more)	5 (hyphal expansion-inhibiting rate: 80% or more)	5 (hyphal expansion-inhibiting rate: 80% or more)	5 (hyphal expansion-inhibiting rate: 80% or more)	5 (hyphal expansion-inhibiting rate: 80% or more)	5 (hyphal expansion-inhibiting rate: 80% or more)
COC(=O)[C@]1(C)CC[C@@H](Cc2ccc(Cl)cc2)[C@]1(O)Cn1cncn1 (racemic) [Compound I-2, methyl-(1RS,2RS,3SR)-3-(4-chlorobenzyl)-2-hydroxy-1-methyl-2-(1H-1,2,4-triazol-1-ylmethyl)cyclopentanecarboxylate]	> 80%	≥ 80%	5 (81 to 100)		95%	no necrotic symptom	5 (Controlling rate: 40 or more)	1 (60% or more and less than 80%)	5 (hyphal expansion-inhibiting rate: 80% or more)	5 (hyphal expansion-inhibiting rate: 80% or more)	5 (hyphal expansion-inhibiting rate: 80% or more)	5 (hyphal expansion-inhibiting rate: 80% or more)	5 (hyphal expansion-inhibiting rate: 80% or more)	5 (hyphal expansion-inhibiting rate: 80% or more)	5 (hyphal expansion-inhibiting rate: 80% or more)	5 (hyphal expansion-inhibiting rate: 80% or more)	5 (hyphal expansion-inhibiting rate: 80% or more)	5 (hyphal expansion-inhibiting rate: 80% or more)	5 (hyphal expansion-inhibiting rate: 80% or more)
CCCOC(=O)[C@]1(C)CC[C@@H](Cc2ccc(Cl)cc2)[C@]1(O)Cn1cncn1 (racemic) [Compound I-6, n-propyl-(1RS,2RS,3SR)-3-(4-chlorobenzyl)-2-hydroxy-1-methyl-2-(1H-1,2,4-triazol-1-ylmethyl)cyclopentanecarboxylate]	> 80%	≥ 80%	5 (81 to 100)				5 (Controlling rate: 40 or more)	3 (20% or more and less than 40%)	5 (hyphal expansion-inhibiting rate: 80% or more)	5 (hyphal expansion-inhibiting rate: 80% or more)	5 (hyphal expansion-inhibiting rate: 80% or more)	5 (hyphal expansion-inhibiting rate: 80% or more)	5 (hyphal expansion-inhibiting rate: 80% or more)	5 (hyphal expansion-inhibiting rate: 80% or more)	5 (hyphal expansion-inhibiting rate: 80% or more)	5 (hyphal expansion-inhibiting rate: 80% or more)	5 (hyphal expansion-inhibiting rate: 80% or more)	5 (hyphal expansion-inhibiting rate: 80% or more)	5 (hyphal expansion-inhibiting rate: 80% or more)
